Assay results taken from the supplement of paper PMC11208160.

Experiment: recombinant UMI read abundance after kanamycin selection (control-corrected) (log10(CPM+1)); higher = more efficient recombination; extreme values may be limits of the assay; sequences stand for … in AGTGCAGAGAAAATCGGCCAGTTTTCTCTGCCTGCAGTCCGCATGCCGTGGGACCCCTTGGGTTCTAACCTGTTGCCTAGATTTATGCAGCGGACTGCCTTTCTCCCAAAGTGATAAACCGG…AGGTTGGTTTCACT; site = the 11-nt donor
In short: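 Sequencing read counts were converted to CPM, averaged over two replicates and scaled by control-derived factors. Results are given as log10(CPM+1). The reads covered the donor–target junction of recombinant UMIs from a pooled Escherichia coli screen of donor and donor-binding-loop pairs for the IS621 bridge recombinase.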
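Note: IS621 bridge recombinase in Escherichia coli cells against a fixed T5 target plasmid.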

Row | Sequence | recombinant UMI read abundance (log10)
1 | CCCTGGCCATGGACCGGTTTTCCCGGTAATCCGTATTTGCC (site CCCTAGCCTGG) | 0
2 | CGATACTCATGGACCGGTTTTCCCGGTAATCCGTATTTGCT (site CGATCATCTAG) | 0
3 | AATAGCCCATGGACCGGTTTTCCCGGTAATCCGTATTTGAC (site AATAGCCCTGT) | 1.07
4 | ATCTATACATGGACCGGTTTTCCCGGTAATCCGTATTTGAC (site ATCTGTACTGT) | 0
5 | ACCGGTCCATGGACCGGTTTTCCCGGTAATCCGTATTTGCC (site ACCGGTCCTGG) | 0
6 | CAAGTCACATGGACCGGTTTTCCCGGTAATCCGTATTTGTT (site CAAGTCACTAA) | 2.2
7 | CAATTCCCATGGACCGGTTTTCCCGGTAATCCGTATTTGCT (site TAATTCCCTAG) | 0.428
8 | AGCCTTCCATGGACCGGTTTTCCCGGTAATCCGTATTTGAC (site AGCCTTACTGT) | 0
9 | TAGCTCGCATGGACCGGTTTTCCCGGTAATCCGTATTTGAA (site TAGCTCGCTTT) | 1.27
10 | GCGAAGCCATGGACCGGTTTTCCCGGTAATCCGTATTTGGG (site GCGAAGCCTGC) | 0
11 | GTATGCACATGGACCGGTTTTCCCGGTAATCCGTATTTGTT (site GTATGCACTTA) | 0.606
12 | GTTCGAGCATGGACCGGTTTTCCCGGTAATCCGTATTTGTA (site GTTCGAGCTTT) | 0.569
13 | TTAGCTGCATGGACCGGTTTTCCCGGTAATCCGTATTTGTG (site GTAGCTGCTCA) | 0.0161
14 | TAGATTACATGGACCGGTTTTCCCGGTAATCCGTATTTGTA (site TAGATTACTTA) | 0.528
15 | AGCTCAGCATGGACCGGTTTTCCCGGTAATCCGTATTTGGG (site ATCTCAGCTCC) | 0.019
16 | AAGGAAACATGGACCGGTTTTCCCGGTAATCCGTATTTGCA (site AAGGAAACTTG) | 2.06
17 | TGCTCCCCATGGACCGGTTTTCCCGGTAATCCGTATTTGGT (site TGCTCCCCTAC) | 0.0121
18 | TTAGCTGCATGGACCGGTTTTCCCGGTAATCCGTATTTGTG (site TTAGCTACTCA) | 0.0282
19 | CACATGTCATGGACCGGTTTTCCCGGTAATCCGTATTTGCA (site CACATGTCTTG) | 2.4

Row | Sequence | recombinant UMI read abundance (log10)
20 | ATGGAGGCATGGACCGGTTTTCCCGGTAATCCGTATTTGGC (site ATGCAGGCTGC) | 1.03
21 | GGAGTGGCATGGACCGGTTTTCCCGGTAATCCGTATTTGGC (site GGAGTGGCTAC) | 0.502
22 | ATAAGGCCATGGACCGGTTTTCCCGGTAATCCGTATTTGTC (site ATAAGGCCTGC) | 0
23 | CCAACCCCATGGACCGGTTTTCCCGGTAATCCGTATTTGCT (site CCAACCCCTAG) | 0
24 | ATTCATACATGGACCGGTTTTCCCGGTAATCCGTATTTGGC (site ATTCATACTGC) | 1.81
25 | GCTAAGCCATGGACCGGTTTTCCCGGTAATCCGTATTTGGG (site GCGAAGCCTCC) | 0.00564
26 | CCTAAAGCATGGACCGGTTTTCCCGGTAATCCGTATTTGAT (site CCGAAAGCTAT) | 0
27 | AGGAAAACATGGACCGGTTTTCCCGGTAATCCGTATTTGCA (site AGGAACACTTG) | 0
28 | CCCATAACATGGACCGGTTTTCCCGGTAATCCGTATTTGTC (site CCCATATCTGA) | 0
29 | TCGCAACCATGGACCGGTTTTCCCGGTAATCCGTATTTGTT (site TCGCAACCTAA) | 0
30 | ACCGGGACATGGACCGGTTTTCCCGGTAATCCGTATTTGAG (site ACCGGGACTCT) | 1.23
31 | AATGTAACATGGACCGGTTTTCCCGGTAATCCGTATTTGCA (site AATGTAACTGG) | 0
32 | CGATAACCATGGACCGGTTTTCCCGGTAATCCGTATTTGGT (site CGATAACCTAC) | 0
33 | TTGTTCCCATGGACCGGTTTTCCCGGTAATCCGTATTTGTG (site TTGTTCCCTCA) | 0.187
34 | CGGGACCCATGGACCGGTTTTCCCGGTAATCCGTATTTGAT (site CGGGAGCCTAT) | 0.00629
35 | TCAGAGACATGGACCGGTTTTCCCGGTAATCCGTATTTGCG (site TCAGAGACTGG) | 0.387
36 | CGGGAACCATGGACCGGTTTTCCCGGTAATCCGTATTTGAT (site CGGGAACCTGT) | 0
37 | AGCACATCATGGACCGGTTTTCCCGGTAATCCGTATTTGGG (site AGCACATCTCC) | 0.0655
38 | TCCGGAACATGGACCGGTTTTCCCGGTAATCCGTATTTGCT (site TCCGGAACTAG) | 0
